pIC50: −log10 of the molar value. Values belong to the compound of their own block, whether it stands above or below them.
Legend:
JAK2 = target: T1, JAK2 (Homo sapiens, UniProt O60674); assay: Inhibition of JAK2 kinase, LANCE Ultra TR-FRET assay; format: biochemical; details: 2x ATP 24 μM, 15 min pre-incubation, 90 min reaction, 23° C.
T1 construct: purchased Invitrogen PV4210
Outline: (§1)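 TR-FRET phosphorylation of 50 nM ULight-JAK-1 peptide read via Eu-PT66 antibody after 90 min reaction at 23 °C in HEPES pH 7.5 buffer. Enzyme levels: JAK1 2 nM, […], TYK2 4 nM; ATP as 2× stock 76/24/8/30 μM. 15-min compound preincubation; 4-parameter IC50.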

JAK3 = target: T2, JAK3 (Homo sapiens, UniProt P52333); assay: Inhibition of JAK3 kinase, LANCE Ultra TR-FRET assay; format: biochemical; details: 2x ATP 8 μM, 15 min pre-incubation, 90 min reaction, 23° C.
T2 construct: purchased Invitrogen PV4080
T2 sequence (P52333 1-1124): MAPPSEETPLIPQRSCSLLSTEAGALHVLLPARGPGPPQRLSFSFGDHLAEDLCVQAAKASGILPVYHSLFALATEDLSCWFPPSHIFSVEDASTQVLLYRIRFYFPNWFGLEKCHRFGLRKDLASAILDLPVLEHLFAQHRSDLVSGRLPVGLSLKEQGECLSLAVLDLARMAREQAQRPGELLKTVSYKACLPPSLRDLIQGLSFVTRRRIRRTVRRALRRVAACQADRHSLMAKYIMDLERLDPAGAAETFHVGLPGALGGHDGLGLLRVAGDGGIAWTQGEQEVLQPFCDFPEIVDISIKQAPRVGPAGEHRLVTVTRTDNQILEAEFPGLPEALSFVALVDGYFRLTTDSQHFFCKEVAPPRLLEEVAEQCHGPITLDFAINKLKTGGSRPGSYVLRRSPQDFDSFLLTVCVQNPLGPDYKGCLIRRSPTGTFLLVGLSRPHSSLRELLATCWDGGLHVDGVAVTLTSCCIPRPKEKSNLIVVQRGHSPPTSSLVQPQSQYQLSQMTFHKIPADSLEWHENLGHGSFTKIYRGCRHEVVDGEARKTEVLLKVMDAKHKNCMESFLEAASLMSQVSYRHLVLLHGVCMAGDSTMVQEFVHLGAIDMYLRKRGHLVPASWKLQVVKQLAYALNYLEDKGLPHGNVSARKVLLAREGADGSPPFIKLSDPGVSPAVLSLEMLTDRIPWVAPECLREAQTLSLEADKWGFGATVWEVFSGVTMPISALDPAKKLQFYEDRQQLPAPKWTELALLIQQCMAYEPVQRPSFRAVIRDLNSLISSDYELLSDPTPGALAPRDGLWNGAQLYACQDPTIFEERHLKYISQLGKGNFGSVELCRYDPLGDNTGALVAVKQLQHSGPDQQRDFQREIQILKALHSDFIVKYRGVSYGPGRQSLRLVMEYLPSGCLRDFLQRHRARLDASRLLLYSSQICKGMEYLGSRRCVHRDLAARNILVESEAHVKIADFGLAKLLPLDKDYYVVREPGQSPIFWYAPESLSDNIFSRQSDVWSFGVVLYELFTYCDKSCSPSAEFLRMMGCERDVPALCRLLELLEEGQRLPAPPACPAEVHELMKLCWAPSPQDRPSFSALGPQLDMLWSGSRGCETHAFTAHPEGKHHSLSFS
Outline: as §1

JAK1 = target: T3, JAK1 (Homo sapiens, UniProt P23458); assay: Inhibition of JAK1 kinase, LANCE Ultra TR-FRET assay; format: biochemical; details: 2 nM JAK1, 2x ATP 76 μM, 15 min pre-incubation, 90 min reaction, 23° C.
T3 construct: purchased Invitrogen PV4775
T3 sequence (P23458 whole entry): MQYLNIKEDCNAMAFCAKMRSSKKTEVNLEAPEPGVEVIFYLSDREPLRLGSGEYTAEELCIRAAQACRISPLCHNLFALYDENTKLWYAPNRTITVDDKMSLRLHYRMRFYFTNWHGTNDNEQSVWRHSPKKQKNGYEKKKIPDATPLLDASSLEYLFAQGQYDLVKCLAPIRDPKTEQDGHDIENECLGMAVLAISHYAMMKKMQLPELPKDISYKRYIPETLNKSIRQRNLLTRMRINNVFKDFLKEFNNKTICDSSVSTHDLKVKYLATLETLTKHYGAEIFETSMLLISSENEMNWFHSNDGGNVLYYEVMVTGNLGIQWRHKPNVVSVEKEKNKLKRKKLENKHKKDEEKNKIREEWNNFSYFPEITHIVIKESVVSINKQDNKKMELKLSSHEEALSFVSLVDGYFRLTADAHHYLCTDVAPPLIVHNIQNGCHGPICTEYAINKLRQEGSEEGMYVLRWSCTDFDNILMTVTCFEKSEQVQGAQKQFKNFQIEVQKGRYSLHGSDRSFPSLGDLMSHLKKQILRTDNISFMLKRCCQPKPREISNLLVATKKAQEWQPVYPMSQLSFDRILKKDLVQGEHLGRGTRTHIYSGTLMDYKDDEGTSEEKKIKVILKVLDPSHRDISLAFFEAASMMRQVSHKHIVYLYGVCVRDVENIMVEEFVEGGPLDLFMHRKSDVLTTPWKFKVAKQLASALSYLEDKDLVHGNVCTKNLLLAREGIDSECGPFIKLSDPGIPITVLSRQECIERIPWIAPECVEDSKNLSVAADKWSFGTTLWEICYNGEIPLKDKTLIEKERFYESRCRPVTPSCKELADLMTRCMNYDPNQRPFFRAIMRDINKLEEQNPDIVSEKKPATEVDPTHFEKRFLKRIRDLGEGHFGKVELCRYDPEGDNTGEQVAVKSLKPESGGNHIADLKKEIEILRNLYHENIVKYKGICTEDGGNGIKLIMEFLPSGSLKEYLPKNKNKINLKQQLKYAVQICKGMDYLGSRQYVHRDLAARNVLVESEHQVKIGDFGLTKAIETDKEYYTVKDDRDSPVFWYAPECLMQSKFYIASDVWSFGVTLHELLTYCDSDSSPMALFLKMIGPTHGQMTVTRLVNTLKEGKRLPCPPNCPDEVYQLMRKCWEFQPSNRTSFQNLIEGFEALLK
Outline: as §1

Hut-78 cells = assay: Inhibition in Hut-78 cells (IL-2 stimulated, HTRF); format: cell-based; details: Homo sapiens, HuT78; compound 2 hours at 37° C., then IL-2 100 ng/mL 10 min; HTRF; read-out: Hut-78 cells IC50
Procedure: Exemplary compounds were assayed to determine potency in inhibiting Hut-78 cells by determining IC50 values.
Hut-78 cells were cultures in IMDM+20% FBS medium. Cells were maintained in log phase before the assay. Cell pellets were collected and resuspended in serum-free and phenol-free RPMI 1640 medium. 40,000 cells/well (10 μL) were seeded in each well of a 384-well plate and incubated with and without compound for 2 hours at 37° C. and 5% C02. IL-2 was added (2 μL, final concentration 100 ng/mL) and the mixture was incubated for 10 min. Cells were lysed by adding 4 μL labeled antibodies and the mixture was incubated overnight. The plate was read using the HTRF protocol on an Envision plate reader. The data was analyzed using XL-fit software (Supplier: ID business solutions Ltd.; Software version: XL fit 5.0). Inhibition %=(Max−Sample value)/(Max−Min)*100.
In the table, “A” indicates an IC50 of less than 0.5 μM, “B” indicates an IC50 range from 0.5 μM to 1 μM; and “C” indicates an IC50 range from 1 μM to 10 μM. Also, “na” indicates data is not available.

TYK2 = target: T4, TYK2 (Homo sapiens, UniProt P29597); assay: Inhibition of TYK2 kinase, LANCE Ultra TR-FRET assay; format: biochemical; details: 4 nM TYK2, 2x ATP 30 μM, 15 min pre-incubation, 90 min reaction, 23° C., read-out: tyk IC50
T4 construct: purchased Invitrogen PR8440C
T4 sequence (P29597 whole entry): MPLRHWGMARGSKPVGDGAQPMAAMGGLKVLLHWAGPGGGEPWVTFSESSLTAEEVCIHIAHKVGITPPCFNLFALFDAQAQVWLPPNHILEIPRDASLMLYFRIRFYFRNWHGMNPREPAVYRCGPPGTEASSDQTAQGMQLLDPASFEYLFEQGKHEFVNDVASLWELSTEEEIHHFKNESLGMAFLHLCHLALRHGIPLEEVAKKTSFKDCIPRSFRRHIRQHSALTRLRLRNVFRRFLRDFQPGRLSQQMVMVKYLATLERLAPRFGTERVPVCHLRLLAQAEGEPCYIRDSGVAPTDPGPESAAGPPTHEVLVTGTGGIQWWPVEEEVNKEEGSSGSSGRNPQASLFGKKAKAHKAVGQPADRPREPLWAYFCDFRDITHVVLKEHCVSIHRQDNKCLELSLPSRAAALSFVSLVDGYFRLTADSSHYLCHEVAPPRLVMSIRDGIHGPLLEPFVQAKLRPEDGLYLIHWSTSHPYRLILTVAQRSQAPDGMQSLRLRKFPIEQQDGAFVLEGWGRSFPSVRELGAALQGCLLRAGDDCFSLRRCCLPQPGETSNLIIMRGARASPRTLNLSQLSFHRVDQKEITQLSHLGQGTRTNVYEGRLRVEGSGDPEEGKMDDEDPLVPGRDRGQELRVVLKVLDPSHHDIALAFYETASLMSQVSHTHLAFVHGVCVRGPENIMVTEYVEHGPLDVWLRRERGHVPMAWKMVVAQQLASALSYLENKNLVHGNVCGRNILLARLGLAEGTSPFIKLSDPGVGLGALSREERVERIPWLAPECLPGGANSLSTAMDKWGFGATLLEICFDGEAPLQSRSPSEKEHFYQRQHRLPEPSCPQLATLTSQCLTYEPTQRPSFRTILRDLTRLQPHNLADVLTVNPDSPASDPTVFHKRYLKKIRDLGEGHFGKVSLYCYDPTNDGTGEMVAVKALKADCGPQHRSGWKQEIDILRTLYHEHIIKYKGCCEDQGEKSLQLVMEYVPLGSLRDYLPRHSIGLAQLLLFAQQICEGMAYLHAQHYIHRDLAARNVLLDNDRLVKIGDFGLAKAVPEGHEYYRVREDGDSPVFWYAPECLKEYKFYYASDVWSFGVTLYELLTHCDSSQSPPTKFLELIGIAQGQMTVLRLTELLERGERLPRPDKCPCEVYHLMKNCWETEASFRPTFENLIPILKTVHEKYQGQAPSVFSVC
Outline: as §1

T1 sequence (O60674 whole entry): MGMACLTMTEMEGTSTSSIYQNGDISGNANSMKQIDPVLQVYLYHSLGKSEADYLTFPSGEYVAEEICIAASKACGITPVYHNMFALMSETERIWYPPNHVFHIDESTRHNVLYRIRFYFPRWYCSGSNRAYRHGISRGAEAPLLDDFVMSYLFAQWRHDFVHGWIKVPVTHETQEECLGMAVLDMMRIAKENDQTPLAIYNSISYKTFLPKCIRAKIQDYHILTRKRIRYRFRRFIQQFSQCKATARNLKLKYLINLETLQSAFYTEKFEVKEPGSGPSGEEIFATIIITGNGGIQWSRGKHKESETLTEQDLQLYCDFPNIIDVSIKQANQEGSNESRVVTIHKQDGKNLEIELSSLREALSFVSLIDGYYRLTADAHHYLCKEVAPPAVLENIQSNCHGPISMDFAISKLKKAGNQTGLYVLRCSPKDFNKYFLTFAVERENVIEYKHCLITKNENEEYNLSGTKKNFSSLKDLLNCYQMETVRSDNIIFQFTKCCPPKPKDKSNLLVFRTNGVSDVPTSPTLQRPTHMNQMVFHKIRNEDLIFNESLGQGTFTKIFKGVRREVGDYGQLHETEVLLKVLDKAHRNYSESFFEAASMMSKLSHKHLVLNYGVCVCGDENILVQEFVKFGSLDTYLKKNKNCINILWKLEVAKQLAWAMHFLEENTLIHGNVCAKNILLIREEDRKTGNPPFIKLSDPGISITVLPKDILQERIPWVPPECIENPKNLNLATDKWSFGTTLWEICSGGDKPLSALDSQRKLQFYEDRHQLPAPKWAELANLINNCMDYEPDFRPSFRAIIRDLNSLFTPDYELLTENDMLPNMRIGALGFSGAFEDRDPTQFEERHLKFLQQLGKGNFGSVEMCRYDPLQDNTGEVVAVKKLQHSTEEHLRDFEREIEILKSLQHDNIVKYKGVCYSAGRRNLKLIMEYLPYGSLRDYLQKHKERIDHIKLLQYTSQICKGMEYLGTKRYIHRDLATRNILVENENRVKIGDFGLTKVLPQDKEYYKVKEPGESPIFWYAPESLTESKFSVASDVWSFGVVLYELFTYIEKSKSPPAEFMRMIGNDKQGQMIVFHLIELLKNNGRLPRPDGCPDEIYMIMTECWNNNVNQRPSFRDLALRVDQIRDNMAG

SMILES: COCCn1nc(C(=O)NCCC(F)(F)F)c2c1CCN(c1ncnc3[nH]ccc13)C2 [Compound 104]
pIC50 (JAK2): 6.30 to 7.00 | pIC50 (JAK3): > 7.00 | pIC50 (JAK1): 6.30 to 7.00 | pIC50 (Hut-78 cells): 6.00 to 6.30 | pIC50 (TYK2): < 5.70

SMILES: O=C(NCCC(F)(F)F)c1nn(Cc2ccncc2)c2c1CN(c1ncnc3[nH]ccc13)CC2 [Compound 105]
pIC50 (JAK2): 6.30 to 7.00 | pIC50 (JAK3): > 7.00 | pIC50 (JAK1): 6.30 to 7.00 | pIC50 (Hut-78 cells): 6.00 to 6.30 | pIC50 (TYK2): < 5.70

SMILES: O=C(c1noc2c1CN(c1ncnc3[nH]ccc13)CC2)N1CC(C(F)(F)F)C1 [Compound 194]
pIC50 (JAK2): > 7.00 | pIC50 (JAK3): > 7.00 | pIC50 (JAK1): > 7.00 | pIC50 (Hut-78 cells): > 6.30 | pIC50 (TYK2): 6.30 to 7.00

Continued, values first:

pIC50 (JAK2): 6.30 to 7.00 | pIC50 (JAK3): > 7.00 | pIC50 (JAK1): 5.70 to 6.30 | pIC50 (Hut-78 cells): 5.00 to 6.00 | pIC50 (TYK2): < 5.70
SMILES: CCS(=O)(=O)n1nc(C(=O)NCCC(F)(F)F)c2c1CCN(c1ncnc3[nH]ccc13)C2 [Compound 102]

pIC50 (JAK2): > 7.00 | pIC50 (JAK3): > 7.00 | pIC50 (JAK1): > 7.00 | pIC50 (Hut-78 cells): 6.00 to 6.30 | pIC50 (TYK2): 6.30 to 7.00
SMILES: O=C(NCCC(F)(F)F)c1noc2c1CN(c1ncnc3[nH]ccc13)CC2 [Compound 110]

pIC50 (JAK2): 6.30 to 7.00 | pIC50 (JAK3): > 7.00 | pIC50 (JAK1): > 7.00 | pIC50 (Hut-78 cells): > 6.30 | pIC50 (TYK2): 5.70 to 6.30
SMILES: O=C(NC1CC1C(F)(F)F)c1noc2c1CN(c1ncnc3[nH]ccc13)CC2 (stereo not drawn) [Compound 182]

Source: patent publication US12286443B2, “Bycyclic JAK inhibitors and uses thereof” (Insilico Medicine IP Limited, priority 2019, dated 2025)
